# In BindingDB's records for doi:10.7270/Q2TX3CTT (Broad Institute, 2010):
# Counter-ions that a name gives are not always drawn.
# Target: Glycogen synthase kinase-3 beta (Homo sapiens, UniProt P49841)
# Assay: concentration-response blocking of human GSK3B – biochemical, luminescence, cell-free homogeneous, retest, dose response (AID 434954)
# Sequence of Glycogen synthase kinase-3 beta (P49841 whole entry): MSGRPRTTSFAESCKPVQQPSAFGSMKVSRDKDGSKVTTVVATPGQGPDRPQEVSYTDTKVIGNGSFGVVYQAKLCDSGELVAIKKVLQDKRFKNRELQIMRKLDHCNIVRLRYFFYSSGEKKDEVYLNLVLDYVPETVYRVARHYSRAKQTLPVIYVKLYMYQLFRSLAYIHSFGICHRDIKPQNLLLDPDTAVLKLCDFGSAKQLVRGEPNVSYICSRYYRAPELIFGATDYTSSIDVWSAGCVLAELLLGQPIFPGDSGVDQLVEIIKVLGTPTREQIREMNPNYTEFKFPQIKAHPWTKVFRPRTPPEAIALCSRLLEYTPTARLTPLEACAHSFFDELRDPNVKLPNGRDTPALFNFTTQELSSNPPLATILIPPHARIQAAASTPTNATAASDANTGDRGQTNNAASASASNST
row,Structure (SMILES),EC50
1,"COc1ccc(OC)c(Nc2nc(N)c([N+](=O)[O-])c(NCc3ccccc3)n2)c1 [N2-(2,5-dimethoxyphenyl)-5-nitro-N4-(phenylmethyl)pyrimidine-2,4,6-triamine]",> 300 µM
2,N#Cc1c(N2CCCCC2)nc(N2CCCCC2)c2c1CCN(Cc1ccccc1)C2 [SMR000036037],3.3 µM
3,O=NCc1cn(CCC(=O)O)nc1-c1cccc([N+](=O)[O-])c1 [SMR000371064],7.38 µM
4,"C[C@@H]1O[C@@H](Oc2c(-c3cc(O)c(O)c(O)c3)oc3cc(O)cc(=O)c-3c2O)[C@H](O)[C@H](O)[C@H]1O [3-[(2S,3R,4R,5R,6S)-6-methyl-3,4,5-tris(oxidanyl)oxan-2-yl]oxy-5,7-bis(oxidanyl)-2-[3,4,5-tris(oxidanyl)phenyl]chromen-4-one]",> 300 µM
5,CN(C)Cc1c(O)ccc2c(-c3ccccc3)cc(=O)oc12 [SMR000277276],> 300 µM
6,Cn1c(=O)c2[nH]c(CN(Cc3ccccc3)Cc3ccccc3)nc2n(C)c1=O [MLS000081398],> 300 µM
7,CCOC(=O)C1C(C)=Nc2ncnn2C1c1ccc2c(c1)OCO2 (configuration not stated),> 300 µM
8,"O=C(CC1NCCNC1=O)Nc1cc(Cl)cc(Cl)c1 (configuration not stated) [N-(3,5-dichlorophenyl)-2-(3-oxopiperazin-2-yl)acetamide]",> 300 µM
9,COCC(C)n1c(C)cc(C(=O)COC(=O)c2ccc3c(c2)NC(=O)CS3)c1C (configuration not stated),> 300 µM
10,"CC1(C)CC(=O)C2C(=NC3=C(C(=O)c4ccccc43)C2c2ccc(O)cc2)C1 (configuration not stated) [10-(4-hydroxyphenyl)-7,7-dimethyl-5,6,8,10-tetrahydroindeno[1,2-b]quinoline-9,11-dione]",> 300 µM
11,"Cc1ccc2nc3c(cc2c1)c(NC(=O)c1ccco1)nn3CC(C)C [Furan-2-carboxylic acid (1-isobutyl-6-methyl-1H-pyrazolo[3,4-b]quinolin-3-yl)-amide]",> 300 µM
12,N#Cc1cccc(-c2nnc(SCc3ccccc3C#N)o2)c1 [SMR000006352],> 300 µM
13,COc1ccc(-c2nn(-c3ccccc3)cc2C=Nn2cnnc2)cc1OC [SMR000066046],> 300 µM
14,CCCCc1cc(=O)oc2c(CN(C)C)c(O)ccc12 [4-butyl-8-[(dimethylamino)methyl]-7-hydroxy-1-benzopyran-2-one],> 300 µM
15,CCOc1ccccc1NC(=O)c1nnn(-c2ccc3c(c2)OCCO3)c1N [MLS001221013],> 300 µM
16,O=C(O)c1ccccc1NCc1ccncc1 [SMR000031483],> 300 µM
17,CC(C)N1C(=O)N(c2ccc(Cl)cc2)C(C)(O)CC1(C)C (configuration not stated) [SMR000539554],> 300 µM
18,COCCn1c(SCC(=O)NC(C)c2ccccc2)nc2ccccc21 (configuration not stated) [SMR000590006],> 300 µM
19,"NS(=O)(=O)c1ccc(N=Nc2cnc(O)c(O)c2)cc1 [4-[(5,6-dioxo-3-pyridinyl)hydrazo]benzenesulfonamide]",> 300 µM
20,"CCn1c(SCC(=O)NNC(=O)c2ccc(C)cc2)nnc1C1CC1 [N'-[2-[(5-cyclopropyl-4-ethyl-1,2,4-triazol-3-yl)sulfanyl]acetyl]-4-methylbenzohydrazide]",> 300 µM
21,c1ccc(CSc2ccc3nnc(-c4cccnc4)n3n2)cc1 [MLS000724858],> 300 µM
22,"COc1cccc2c1cc1c(=O)n(CC(=O)NCCCN3CCCCC3)nc(C)n12 [2-(9-methoxy-4-methyl-1-oxo-[1,2,4]triazino[4,5-a]indol-2-yl)-N-[3-(1-piperidinyl)propyl]acetamide]",> 300 µM
23,COc1ccc(-c2nn(-c3ccccc3)cc2CN=Nc2ccccn2)cc1OC [MLS000388893],66.1 µM

row,Structure (SMILES),EC50
1,Cc1ccc(-c2nn(-c3ccccc3)cc2C=NNS(=O)(=O)c2ccccc2)cc1 [SMR000186234],> 300 µM
2,NC(=O)c1c(NC(=O)CN2C(=O)CCC2=O)sc2c1CCCCC2 [SMR000018552],> 300 µM
3,Oc1ccc(CN=Nc2ncc(Br)cn2)c(O)c1,12.3 µM
4,Nc1ncnc2c1ncn2[C@@H]1O[C@H](CO)[C@@H](O)[C@H]1N,> 300 µM
5,CSCCC(C(=O)NCc1cccs1)N1C(=O)c2ccccc2C1=O (configuration not stated) [SMR000150898],> 300 µM
6,CC[n+]1c(/C=C/N(C)c2ccccc2)oc2ccccc21 [SMR000184373],> 300 µM
7,c1ccc(-c2nc(NCc3cccnc3)c3ccccc3n2)cc1,> 300 µM
8,"O=C(CSc1ccc2nnc(-c3cccs3)n2n1)N1CCCC1 [1-(1-pyrrolidinyl)-2-[(3-thiophen-2-yl-[1,2,4]triazolo[4,3-b]pyridazin-6-yl)thio]ethanone]",> 300 µM
9,"COc1ccc(C(=O)NCC(=O)NN=Cc2ccc(C)o2)cc1OC [3,4-dimethoxy-N-(2-{2-[(5-methyl-2-furyl)methylene]hydrazino}-2-oxoethyl)benzamide]",> 300 µM
10,"c1ccc2c(CSc3nnc(-c4ccncc4)o3)cccc2c1 [2-(naphthalen-1-ylmethylsulfanyl)-5-pyridin-4-yl-1,3,4-oxadiazole]",29.1 µM
11,O=C(O)c1ccc(-c2ccc(CN=Nc3ccc([N+](=O)[O-])cc3)o2)cc1,> 300 µM
12,CC(C(=O)Nc1nc2ccccc2s1)n1cc([N+](=O)[O-])cn1 (configuration not stated) [SMR000307349],> 300 µM
13,COCCCNc1nc(N)c([N+](=O)[O-])c(NCc2ccccc2)n1,5.95 µM
14,CN1CCc2c(sc(NC(=O)Cc3ccc(F)cc3)c2C(N)=O)C1 [SMR000641824],> 300 µM
15,O=C(CSc1ncnc2c1cnn2-c1ccc(F)cc1)NCC1CCCO1 (configuration not stated) [SMR000806858],> 300 µM
16,COc1ccc(CN=Nc2ccc([N+](=O)[O-])cc2)cc1O [MLS001198430],> 300 µM
17,CCC(=O)Nc1sc2c(c1C(N)=O)CCN(Cc1ccccc1)C2,> 300 µM
18,O=C(NCC1COc2ccccc2O1)c1ccccc1 (configuration not stated) [SMR000069822],> 300 µM
19,COc1ccc2c(c1)-c1c(sn(-c3ccc(OC)c(OC)c3)c1=S)C(C)(C)N2,> 300 µM
20,"CC(=O)N1CCc2c(sc(NC(=O)C3CCCN3S(=O)(=O)c3cccs3)c2C(N)=O)C1 (configuration not stated) [6-acetyl-2-[(1-thiophen-2-ylsulfonylpyrrolidine-2-carbonyl)amino]-5,7-dihydro-4H-thieno[2,3-c]pyridine-3-carboxamide]",> 300 µM
21,COc1cccc(C(=O)N/N=C/c2ccc(Oc3ccc([N+](=O)[O-])cn3)c(OC)c2)c1 [3-methoxy-N-[[3-methoxy-4-(5-nitropyridin-2-yl)oxyphenyl]methylideneamino]benzamide],> 300 µM
22,O=C(NN=Cc1ccc2nccnc2c1)c1ccncc1 [N-(quinoxalin-6-ylmethylideneamino)pyridine-4-carboxamide],> 300 µM
23,COc1cccc(N(C(=O)C[S+]([O-])CC(=O)Nc2ccc(F)cc2)C(C(=O)NC2CCCCC2)c2cccs2)c1 (configuration not stated) [MLS000566826],> 300 µM

row,Structure (SMILES),EC50
1,N#Cc1c2n(c3c(=O)[nH]cnc13)CCCC2,56.4 µM
2,"COc1ccc(OC)c(C(=O)c2coc3ccc(O)c(CN(C)C)c23)c1 [(2,5-dimethoxyphenyl)-[4-[(dimethylamino)methyl]-5-oxidanyl-1-benzofuran-3-yl]methanone;hydrochloride]",> 300 µM
3,COC(=O)c1ccc(NC(C(=O)OC)C(C)C)c([N+](=O)[O-])c1 (configuration not stated) [methyl 4-[(1-methoxy-3-methyl-1-oxidanylidene-butan-2-yl)amino]-3-nitro-benzoate],> 300 µM
4,"Nc1nonc1-n1nnc(C(=O)NN=Cc2ccc(Cl)cc2Cl)c1CN1CCCC1 [1-(4-azanyl-1,2,5-oxadiazol-3-yl)-N-[(2,4-dichlorophenyl)methylideneamino]-5-(pyrrolidin-1-ylmethyl)-1,2,3-triazole-4-carboxamide]",> 300 µM
5,N#Cc1c(N)nc2c(c1-c1ccc(F)cc1)CCC2,> 300 µM
6,"O=C(CS(=O)(=O)c1ccccc1)Nc1ncc([N+](=O)[O-])s1 [2-(benzenesulfonyl)-N-(5-nitro-1,3-thiazol-2-yl)acetamide]",> 300 µM
7,"O=C(COc1cccc2cccnc12)NN=Cc1ccc(O)cc1 [N'-[(4-oxo-1-cyclohexa-2,5-dienylidene)methyl]-2-(8-quinolinyloxy)acetohydrazide]",9.3 µM
8,Cc1ccccc1CSc1nnc([C@@H]2CCCN2)o1 [MLS000333752],> 300 µM
9,"COc1cc(/C=C(\C#N)C(=O)c2c[nH]c3ccccc23)cc(OC)c1O [(E)-3-(4-hydroxy-3,5-dimethoxyphenyl)-2-(1H-indole-3-carbonyl)prop-2-enenitrile]",6.57 µM
10,"O=C(CSc1nnc(-c2ccco2)n1Cc1ccco1)N1CCOCC1 [2-(5-Furan-2-yl-4-furan-2-ylmethyl-4H-[1,2,4]triazol-3-ylsulfanyl)-1-morpholin-4-yl-ethanone]",> 300 µM
11,COc1ccc(-c2nn(-c3ccccc3)cc2N)cc1 [3-(4-methoxyphenyl)-1-phenylpyrazol-4-amine],> 300 µM
12,Cc1ccc(C=NNC(=O)c2cncc(Br)c2)o1 [SMR000226283],> 300 µM
13,CCOc1ccc(CNC(=O)Cn2ccc3cc(S(=O)(=O)N4CCCCCC4)ccc32)cc1 [SMR000629622],> 300 µM
14,O=C(Nc1ccccn1)c1ccc(C(=O)Nc2ccccn2)cc1 [SMR000502618],> 300 µM
15,CC1(C)CC(=O)C2C(=Nc3ncnn3C2c2cccs2)C1 (configuration not stated) [SMR000291528],57.1 µM
16,COCCn1nnnc1C(c1cc2cc(C)ccc2[nH]c1=O)N1CCc2ccccc21 (configuration not stated) [SMR000122998],> 300 µM
17,"Nc1nonc1-n1nnc(C(=O)NN=Cc2c(F)cccc2Cl)c1-c1ccc2c(c1)OCO2 [1-(4-amino-1,2,5-oxadiazol-3-yl)-5-(1,3-benzodioxol-5-yl)-N-[(2-chloro-6-fluorophenyl)methylideneamino]-4-triazolecarboxamide]",1.58 µM
18,"Cc1ncsc1CCSc1nc2ccccc2c(=O)n1C [3-methyl-2-{[2-(4-methyl-1,3-thiazol-5-yl)ethyl]thio}-4(3H)-quinazolinone]",18.8 µM
19,"O=C(Nc1cccc2c1C(=O)NC2=O)c1ccc(-n2c(O)ccc2O)cc1 [N-[1,3-bis(oxidanylidene)isoindol-4-yl]-4-[2,5-bis(oxidanylidene)pyrrolidin-1-yl]benzamide]",77.1 µM
20,CN(C)CCCNc1nc(N)c([N+](=O)[O-])c(NCCO)n1 [2-[[6-amino-2-[3-(dimethylamino)propylamino]-5-nitro-4-pyrimidinyl]amino]ethanol],60.3 µM
21,"CCNc1nc(N)nc(Oc2ccc(OCCOc3ccc(Cl)cc3Cl)nn2)n1 [6-[6-[2-(2,4-dichlorophenoxy)ethoxy]pyridazin-3-yl]oxy-2-N-ethyl-1,3,5-triazine-2,4-diamine]",> 300 µM
